From ChEMBL document CHEMBL2074483, “Multidrug-resistance protein 5 is a multispecific organic anion transporter able to transport nucleotide analogs” (Proc Natl Acad Sci U S A, 2000)

How the values were obtained:
[1] = target: T1, ATP-binding cassette sub-family C member 5 (Homo sapiens, UniProt O15440); assay: TP_TRANSPORTER: efflux in MRP5-expressing MDCKII cells; format: functional, cell-based; settings: dog, mdck-ii
[2] = target: T1, ATP-binding cassette sub-family C member 5; assay: TP_TRANSPORTER: inhibition of PMEA efflux (PMEA: 1 uM) in MRP5-expressing MDCKII cells; format: functional, cell-based, MDCK-II

T1 sequence (O15440 whole entry): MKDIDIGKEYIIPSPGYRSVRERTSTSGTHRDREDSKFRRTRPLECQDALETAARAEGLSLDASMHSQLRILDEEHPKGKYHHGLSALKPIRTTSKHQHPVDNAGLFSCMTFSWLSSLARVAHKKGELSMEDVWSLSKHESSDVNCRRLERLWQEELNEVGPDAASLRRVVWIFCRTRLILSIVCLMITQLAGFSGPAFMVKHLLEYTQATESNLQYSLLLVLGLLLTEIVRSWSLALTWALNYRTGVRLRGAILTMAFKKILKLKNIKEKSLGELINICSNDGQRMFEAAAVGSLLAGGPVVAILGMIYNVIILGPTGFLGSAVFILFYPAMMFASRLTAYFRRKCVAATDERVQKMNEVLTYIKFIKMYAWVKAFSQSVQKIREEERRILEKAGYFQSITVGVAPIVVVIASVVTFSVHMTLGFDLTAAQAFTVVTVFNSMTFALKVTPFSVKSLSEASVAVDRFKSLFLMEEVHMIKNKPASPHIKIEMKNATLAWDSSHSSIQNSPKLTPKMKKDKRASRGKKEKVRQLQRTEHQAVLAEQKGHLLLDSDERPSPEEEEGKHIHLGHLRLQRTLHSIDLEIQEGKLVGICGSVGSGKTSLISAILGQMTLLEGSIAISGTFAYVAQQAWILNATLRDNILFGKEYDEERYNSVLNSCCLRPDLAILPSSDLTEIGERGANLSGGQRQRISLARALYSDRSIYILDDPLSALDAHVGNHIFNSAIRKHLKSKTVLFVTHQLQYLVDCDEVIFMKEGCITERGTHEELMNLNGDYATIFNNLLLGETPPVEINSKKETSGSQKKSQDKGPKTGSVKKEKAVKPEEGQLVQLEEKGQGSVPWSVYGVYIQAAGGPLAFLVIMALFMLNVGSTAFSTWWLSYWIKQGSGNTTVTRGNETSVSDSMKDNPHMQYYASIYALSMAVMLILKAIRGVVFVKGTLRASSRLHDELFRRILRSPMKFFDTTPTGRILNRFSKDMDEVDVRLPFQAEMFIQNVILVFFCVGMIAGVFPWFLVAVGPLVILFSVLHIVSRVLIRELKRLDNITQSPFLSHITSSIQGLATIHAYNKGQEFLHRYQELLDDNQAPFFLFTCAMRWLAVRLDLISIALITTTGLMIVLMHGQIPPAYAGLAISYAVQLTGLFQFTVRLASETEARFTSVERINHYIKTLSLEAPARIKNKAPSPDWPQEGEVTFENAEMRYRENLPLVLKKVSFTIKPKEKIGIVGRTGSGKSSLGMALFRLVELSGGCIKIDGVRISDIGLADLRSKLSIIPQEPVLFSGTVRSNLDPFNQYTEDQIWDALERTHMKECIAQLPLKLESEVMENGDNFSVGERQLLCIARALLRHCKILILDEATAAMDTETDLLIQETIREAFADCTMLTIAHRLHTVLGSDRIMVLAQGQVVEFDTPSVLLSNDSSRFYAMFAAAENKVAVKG

| SMILES | Activity [1] | IC50 [2] |
| --- | --- | --- |
| Nc1ncnc2c1ncn2CCOCP(=O)(O)O [ADEFOVIR] | substrate [+] | – |
| Sc1ncnc2nc[nH]c12 [MERCAPTOPURINE ANHYDROUS] | substrate [+] | – |
| O=C1C(CC[S+]([O-])c2ccccc2)C(=O)N(c2ccccc2)N1c1ccccc1 (stereo not drawn) [SULFINPYRAZONE] | – | < 100 µM |
